1 molecule from publication PMC6472337, “L amino acid transporter structure and molecular bases for the asymmetry of substrate interaction” (Nature Communications, 2019) can be followed below.

Each structure is given as a SMILES string. “And” between values parts separate entries of the source, which are not always exact repeats. Equal values may be shown once. Read-outs that look alike come from different tables or passages of the source.

In one experiment the target is T1, hAsc-1 K194A mutant (Homo sapiens, UniProt Q9NS82, K194A).
T1 sequence (Q9NS82 1-523 K194A): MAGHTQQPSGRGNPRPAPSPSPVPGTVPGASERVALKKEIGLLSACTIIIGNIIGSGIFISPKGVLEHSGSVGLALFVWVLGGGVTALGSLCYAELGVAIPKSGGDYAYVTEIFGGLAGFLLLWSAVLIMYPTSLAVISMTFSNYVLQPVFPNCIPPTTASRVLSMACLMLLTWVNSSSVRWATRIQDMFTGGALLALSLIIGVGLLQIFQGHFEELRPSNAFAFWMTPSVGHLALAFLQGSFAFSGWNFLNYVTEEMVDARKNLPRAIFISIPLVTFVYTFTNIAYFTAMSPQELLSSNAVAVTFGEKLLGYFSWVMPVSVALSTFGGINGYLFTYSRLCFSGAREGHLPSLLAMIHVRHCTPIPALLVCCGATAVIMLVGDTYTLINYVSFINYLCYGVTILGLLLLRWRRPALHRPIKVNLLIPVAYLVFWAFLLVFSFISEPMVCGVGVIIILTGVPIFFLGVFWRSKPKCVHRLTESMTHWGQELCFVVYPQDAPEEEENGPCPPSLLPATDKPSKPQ
T1 sequence (P08195 1-529 partner): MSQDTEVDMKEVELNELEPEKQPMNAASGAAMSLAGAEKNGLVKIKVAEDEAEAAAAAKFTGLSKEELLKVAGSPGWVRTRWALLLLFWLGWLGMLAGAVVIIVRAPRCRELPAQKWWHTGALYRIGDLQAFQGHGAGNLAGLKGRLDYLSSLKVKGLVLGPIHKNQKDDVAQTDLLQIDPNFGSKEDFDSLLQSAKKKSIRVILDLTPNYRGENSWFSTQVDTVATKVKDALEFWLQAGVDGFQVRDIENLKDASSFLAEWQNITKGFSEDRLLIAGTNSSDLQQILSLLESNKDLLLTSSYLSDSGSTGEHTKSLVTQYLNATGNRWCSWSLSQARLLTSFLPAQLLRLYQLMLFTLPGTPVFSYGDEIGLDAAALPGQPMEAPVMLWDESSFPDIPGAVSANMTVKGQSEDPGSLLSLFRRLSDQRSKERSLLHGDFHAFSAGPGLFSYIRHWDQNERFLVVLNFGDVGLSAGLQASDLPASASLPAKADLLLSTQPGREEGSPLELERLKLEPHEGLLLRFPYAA
The experiment can be described thus: [3H]L-alanine uptake in HeLa cells, hAsc-1 K194A.

The target in the next experiment is BasC K154A mutant. Put plainly: Thermostability-based L-alanine binding assay, K154A. Also noted: species or system Carnobacterium sp AT7. The following applies: for Kd K154A binding curve, normalized signal: n=1-3. Here is the method: GFP-fused BasC proteins purified in DM were incubated for 10 min at 4–60 °C (Y236F and K154A mutants) or 4–70 °C (wild-type). In total, 200 µl of 2 mg ml^−1 protein was used for each temperature point. Protein was then centrifuged at 186,000 × g for 30 min. […] Fractions (200 µl) were collected and measured for GFP fluorescence. The peak heights were normalized to those of samples incubated at 4 °C and were fit to the Hill equation using the GraphPad Prism 4 program (GraphPad Software Inc., San Diego, CA). Melting temperatures (Tm) were determined by fitting the curves to a sigmoidal dose-response equation, as previously described.
BasC-GFP proteins were then incubated at the calculated Tm for 10 min and centrifuged at 186,000 × g for 30 min. […] Binding affinities were determined by fitting the curves to a sigmoidal dose-response equation.

As for `C[C@H](N)C(=O)O` [L-alanine], the “reduction of Vmax vs. wild-type” value on hAsc-1 K194A mutant is listed as ~ 10 fold. Besides, at hAsc-1 K194A mutant, the “reduction of external apparent affinity vs. wild-type” value is on record as ~ 10 fold. Besides, the Kd on BasC K154A mutant (K154A, incubated at Tm, L-alanine 0–200 mM, read-out: KD (apparent, thermostability-based)) is 61.4 ± 7.3 mM; on BasC K154A mutant (individual experiments n=1, n=2, n=3, read-out: Apparent Kd K154A) it was 55.6 mM and 58.9 mM and 69.7 mM; on BasC K154A mutant (mean of n=3, read-out: Apparent Kd K154A, mean), 61.4 mM. For the same molecule, the “Kd K154A binding curve, normalized signal” value at BasC K154A mutant ([L-Alanine] 6.25 mM) was 14.092 and 14.380 and 15.376; on BasC K154A mutant ([L-Alanine] 12.50 mM) it was 15.845 and 21.520 and 16.121; on BasC K154A mutant ([L-Alanine] 25 mM) it was 35.951 and 29.574 and 35.797; on BasC K154A mutant ([L-Alanine] 50 mM), 50.837 and 57.901 and 51.971; at BasC K154A mutant ([L-Alanine] 100 mM) it was 91.898 and 90.173 and 89.225; at BasC K154A mutant ([L-Alanine] 150 mM), 95.225 and 92.554 and 88.658. In addition, the “Kd K154A binding curve, normalized signal” value at BasC K154A mutant ([L-Alanine] 200 mM) stood at 100.000.
